According to US11219218B2, “Methods of enhancing algae production” (Boise State University, priority 2018, dated 2022):
Read-outs that look alike come from different tables or passages of the source.

Experiments:
N. oculata [1] = conditions: for algal growth rate / final AFDW: co-culture with B. plicatilis; for final AFDW: day eight
Description: (§1) Five free ammonia exposure times were chosen (0, 1, 2, 6, and 12 hours) with the goal of identifying which times may lead to an optimal reduction of B. plicatilis populations without negatively affecting N. oculata growth. We also used a rotifer-free control to observe the growth of N. oculata with neither rotifers nor elevated free ammonia exposure relative to experimental treatments. We conducted this experiment in both defined media (f/2) and dairy wastewater (ADE) to observe any differences between media types. For the defined medium trial, we created culture mixtures containing f/2 in ASW, 0.01 M Tris base, N. oculata at approximately 1×10^6 cells mL^−1 and B. plicatilis at approximately 10 rotifers mL^−1. NH4Cl was added to this mixture to initiate the period of free ammonia exposure. Similarly, for the dairy wastewater trial, we created culture mixtures containing ASW, 0.01 M Tris base, N. oculata at approximately 1×10^6 cells mL^−1, and B. plicatilis at approximately 10 rotifers/mL. The initial cell density of N. oculata was meant to represent a high-density culture nearing early stationary phase, which also allowed for increases in cell density. The initial rotifer density was chosen to represent initial stages of a contamination event after exposure of the algal culture to colonizing rotifer pests, at which point contamination is detectable yet treatable. ADE was added to this mixture to initiate the period of free ammonia exposure. For both trials, pH was immediately adjusted to 9 for the 1, 2, 6, and 12 hour treatments and held at this pH for the designated exposure time. The 0 hour and control treatments were adjusted to pH 6.3-6.5 via CO2 addition prior to addition of the ammonium source, thereby eliminating any exposure to elevated free ammonia. […] Thus, all treatments within an experiment received the same amount of CO2 and the same amount of total NH3—N. Flasks were shaken and stirred once daily on a stir plate while pH was being adjusted to desired level. In this experiment, pH was measured and controlled in each treatment using American Marine Pinpoint pH controllers.
(§2) Samples for total NH3—N were collected at the beginning and end of the exposure time for each treatment in order to quantify potential loss of N from the system caused by volatilization of free ammonia. Densities of N. oculata and B. plicatilis were measured at the initial free ammonia exposure time, and every 24 hours thereafter for eight days. Live B. plicatilis were enumerated in triplicate 1 mL counts in a Sedgewick-Rafter counting chamber (Wildco item #EW-05491-64), and growth of N. oculata was tracked by both OD680 measurement and direct cell counts. Final ash free dry weight (AFDW) was measured on day eight for all replicates.
(§3) We chose this range in order to eliminate possible free ammonia inhibition after the designated exposure period while also staying within the pH range for optimal growth of N. oculata.

B. plicatilis [2] = conditions: for effect of elevated free ammonia exposure time on 24-hour rotifer survival: pH 9, exposure 0-12 hours; for mean rotifer densities over the eight-day experiment: f/2 and ADE media
Description: as §1, §2, §3

N. oculata [3] = system: N. oculata
Chlorella pyrenoidosa = conditions: Tan et al., 2015; cited from earlier work
Nannochloropsis oculata = conditions: Gutierrez et al., 2016, cited from earlier work
B. plicatilis [4] = system: B. plicatilis
Chlorella sorokiniana = conditions: Gutierrez et al., 2016; cited from earlier work
Scenedesmus obliquus = conditions: Abeliovich and Azov, 1976; cited from earlier work
Brachionus rotifer = conditions: cited from earlier work

SMILES: N [free ammonia, ammonia]
- effects on the alga Nannochloropsis oculata (N. oculata [1]; 6-12 hours of elevated free ammonia, both media types): no negative effects
- algal growth rate (N. oculata [1]; 6-hour exposure time): 0.70 ± 0.01 day⁻¹
- final AFDW (N. oculata [1]; 6-hour exposure time): 0.37 ± 0.004 g/L
- algal growth rate (N. oculata [1]; 12-hour exposure time): 0.60 ± 0.06 day⁻¹
- final AFDW (N. oculata [1]; 12-hour exposure time): 0.38 ± 0.004 g/L
- prediction formula for 24-hour B. plicatilis survival against exposure time (FIG. 3) (B. plicatilis [2]; ADE medium, 52.8 mg L^−1 free ammonia): ln(% survival)=4.768-0.2902*exposure time
- effect of elevated free ammonia exposure time on 24-hour rotifer survival (B. plicatilis [2]; dairy ADE medium): significantly decreased
- effect of elevated free ammonia exposure time on 24-hour rotifer survival (B. plicatilis [2]; f/2 medium): significantly decreased
- mean rotifer densities over the eight-day experiment (B. plicatilis [2]; six-hour exposure time): remained below the initial density
- mean rotifer densities over the eight-day experiment (B. plicatilis [2]; twelve-hour exposure time): remained below the initial density
- rotifer density over the eight-day experiment (B. plicatilis [2]; two hours or less of exposure, ADE medium): proliferated, with up to an order of magnitude increase in rotifer density
- effect of free ammonia concentration on final OD680 levels (N. oculata [3]; ADE cultures): no effect
- effect of initial free ammonia on growth rates (N. oculata [3]; ADE medium): no effect
- OD680 levels of N. oculata with increasing free ammonia levels (N. oculata [3]; f/2 medium): increased
- effect of initial free ammonia on growth rates (N. oculata [3]; f/2 medium): no effect
- inhibition of N. oculata (N. oculata [3]; f/2 or ADE media, any of the free ammonia levels tested, seven days): no observed inhibition
- concentration tolerated without inhibition of photosynthesis or growth rate (Chlorella pyrenoidosa): up to 20 mg/L free NH3—N
- highest level tested, not inhibited (Nannochloropsis oculata): 16 mg free NH3—N
- lipid content of N. oculata (Nannochloropsis oculata; exposure to high free ammonia levels): not significantly altered
- prediction formula for 24-hour rotifer survival against free ammonia concentration (FIG. 1A) (B. plicatilis [4]; 5% ADE medium): ln(% survival)=3.606-0.0357*exposure time
- relationship between initial free ammonia concentration and B. plicatilis survival after 24 hours (B. plicatilis [4]; 5% dairy ADE, free ammonia 0.77-48.9 mg L^−1 (pH 7-9)): significant negative relationship
- relationship between initial free ammonia concentration and B. plicatilis survival after 24 hours (B. plicatilis [4]; ASW medium with NH4Cl, free ammonia 0.65-41.6 mg L^−1 (pH 7-9)): significant negative relationship
- highest level tested, not inhibited (Chlorella sorokiniana): 16 mg free NH3—N
- concentration tolerated without inhibition of photosynthesis or growth rate (Scenedesmus obliquus): up to 28 mg/L free NH3—N
- concentration that causes complete mortality (Brachionus rotifer; Schlüter and Groeneweg, 1985): over 5 mg/L free NH3—N
- concentration that reduces Brachionus rotifer reproduction (Brachionus rotifer; de Araujo et al., 2000): ≥ 2.4 mg/L
